Results: US9040713B2, “Methods of managing blood sugar levels and compositions related thereto” (EMORY UNIVERSITY, priority 2010, dated 2015)
Entries after “also recorded” stand apart in the source; their conditions may differ.

Legend:
[1] = target: T1, GST-IRTK (Homo sapiens, UniProt P06213); test: Partial proteolysis; format: binding; conditions: compound 50 μM or ATP-γ-S 5 μM; limited trypsin (or chymotrypsin) digestion
T1 construct: GST-tagged IRTK (GST-IRTK, a.a. 1011-1382); purchased Invitrogen
Procedure: 200 ng GST-IRTK was subjected to limited trypsin digestion in the presence or absence of 50 μM compound with 50 mM tris-HCL (pH8.2) and 20 mM CacCl2. The sample was separated on a SDS-polyacrylamide gel and stained by silver.
Several small molecules bind to the intracellular kinase domain of IR (IRTK) and provoke its activation. DDN might also interact with the IRTK to activate IR. To test this possibility, an UV-absorption spectra analysis was performed using recombinant IRTK. While the GST-tagged IRTK (GST-IRTK, a.a. 1011-1382) had no absorption from 200 nm to 800 nm, addition of DDN, but not its structural related analogue naptho[2,3-d]thiazole-4,9-dione-2-[(4-chlorophenyl)amino] […] Partial proteolysis analysis was also performed to confirm the DDN/IRTK interaction. Recombinant GST-tagged IRTK was incubated with either DMSO or DDN, followed by limited trypsin digestions. In DMSO treatment, GST-IRTK was digested into several smaller fragments of various molecular weights. […] Whereas a band of ˜37 kDa presented strongly in the ATP-γ-S incubated IRTK, a band of ˜30 kDa was found in the control samples but attenuated in the ATP-γ-S-treated sample.
To evaluate if 4524-E7 directly binds to the IR kinase domain, a partial proteolysis assay was performed with recombinant IRTK domain using trypsin or chymotrypsin, which was used before to characterize the interaction between IR and its small molecular ligand DAQ B1. Recombinant GST-tagged IRTK with either DMSO, 50 μM 4524-E7 or ATP-γ-S, were incubated and followed by limited trypsin or chymotrypsin digestion. Under DMSO treatment, GST-IRTK was quickly digested by both trypsin and chymotrypsin into several small fragments with various molecular weights (FIG. 10B). […] To test whether 4524-E7 selectively elevates IR kinase activities, an in vitro IR, IGFR, and EGFR kinase assays were performed using histone as the substrate.

[2] = target: T1, GST-IRTK; test: IR in vitro kinase assay (histone H2B phosphorylation); format: biochemical; conditions: different concentrations of compound
Procedure: Parental CHO cells were used as a negative control (bottom panel). The fluorescence-labeled cells were analyzed on flow cytometry. (B) DDN binds to IRTK. UV-visible spectra were scanned from 200 to 800 nm for IRTK fragment in the presence of DDN or its analogue. When DDN binds to IRTK, it elicits the absorption alteration at 560 and 602 nm. (C) DDN protects IRTK from proteolysis. GST-IRTK was subjected to limited trypsin digestion in the presence of DDN (50 μM), ATP-γ-S (5 μM) or both. The reaction mixture was resolved by SDS-PAGE, followed by silver staining (D) DDN increases IRTK activity in vitro.
Parental CHO cells were used as a negative control (Bottom panel). The fluorescence-labeled cells were analyzed on flow cytometry. (B) 4524-E7 protects IRTK from proteolysis. GST-IRTK was subjected to limited trypsin or chymotrypsin digestion in the presence of 4524-E7 (50 μM), ATPyS (5 μM) or both at 37° C. for 5 min. The reaction mixture was resolved by SDS-PAGE, followed by silver staining Cleaved fragments were asterisked. (C) 4524-E7 increases IRTK activity in vitro. Recombinant GST-IRTK, GST-IGFRTK, and GST-EGFRTK were incubated with different concentrations of 4524-E7 or 10 μM 2—NH2-NQ and the kinase activity was examined by monitoring the phosphorylation of histone H2B. (E) In vitro kinase activity of various IRTK/IGF-1R kinase hybrids. The GFP-tagged kinases were expressed in HEK293, immunoprecipitated and incubated with different concentrations of 4524-E7 as indicated. […] Expressions of the kinases were also verified (lower panel).
Recombinant GST-IRTK was incubate with 50 mM tris-HCl (pH7.4), 10 mM MgCl2, and 50 μM ATP with different concentration of compound for 15 min at 25° C. Histone H2B (0.35 μg/ml) and [γ32P]ATP (0.25 μCi/ul) were added and the samples were further incubated for 10 min. The sample was separated on a SDS-polyacrylamide gel and autoradiographed.

[3] = target: IR (Mus musculus, UniProt P15208); test: IR phosphorylation and downstream signaling in mouse tissues; format: in vivo; conditions: C57BL/6J mice, 20 mg/kg oral
Procedure: (§1) (A) DDN reduces blood glucose in C57BL/6J mice. […] Blood glucose was monitored before and after dosing at various time points as indicated (*: P<0.05, **: P<0.01; ***: P<0.001, n=10-13, Two-way ANOVA vs vehicle). (B) DDN provokes IR phosphorylation and its downstream signaling in C57BL/6J mice. Three month-old C57BL/6J mice were starved for 12 h and then orally administrated with vehicle (0.5% methylcellulose), DDN (20 mg/kg) or 2NH2-NQ (20 mg/kg). Cell lysates were prepared from liver and muscle tissues collected at 3, 4, and 5 h after drug administration and analyzed by immunoprecipitation and immunoblotting. (C) DDN quickly activates IR phosphorylation and its downstream signaling. Three-month-old C57BL/6J mice were starved for 12 h and then injected with vehicle, 5 mg/kg DDN or 5 mg/kg 2NH2-NQ through vena cava. After 5 min, the liver was collected and analyzed by immunobloting using specific antibodies.
Three-month-old mice were starved for 12 h and then orally administrated with vehicle (0.5% methylcellulose) or DDN (5 mg/kg). Cell lysates were prepared from liver and muscle tissues collected at 1 and 2 h after drug administration and analyzed by immunoprecipitation and immunoblotting. […] Three-month-old mice were starved for 12 h and then orally administrated with vehicle (0.5% methylcellulose) or DDN (5 mg/kg). Cell lysates were prepared from liver and muscle tissues collected at 1 and 2 h after drug administration and analyzed by immunoprecipitation and immunoblotting. (C) Hypoglycemic function of DDN in db/db mice. The animals were starved for 12 h and then orally injected with vehicle (0.5% methylcellulose) or DDN (5 mg/kg). […] Blood glucose was monitored before and after drug administration at 1-hour intervals (*: P<0.05, **: P<0.01, n=5, Two-way ANOVA vs vehicle). (D) DDN improves the glucose tolerance in ob/ob mice. The animals were starved for 12 h and then orally dosed with vehicle (0.5% methylcellulose) or DDN (5 mg/kg). […] A bonus of glucose (2 gm/kg) was injected intraperitoneally 1 hour later. Blood glucose was measured at 30-min intervals (*: P<0.05, **:P<0.01, n=5, Two-way ANOVA vs vehicle control).
(§2) (A) 4524-E7 provokes IR phosphorylation in various tissues of mice. Three-month-old C57BL/6J mice were starved for 12 h and then dosed with vehicle (0.5% methylcellulose) or 4524-E7 (20 mg/kg). Cell lysates from liver, muscle, and WAT were prepared at 3, 4, and 5 h after drug administration and analyzed by immunoblotting. (B) Basal and insulin-stimulated hepatic glucose production rates were measured by hyperinsulinemic-euglycemic clamp. […] (C) Hypoglycemic effect of 4524-E7 in C57BL/6J mice. C57BL/6J mice were starved for 12 h and then orally administrated with vehicle (0.5% methylcellulose) or 4524-E7 (5 mg/kg). Blood glucose was monitored at different time points as indicated (n=8, *: P<0.05, two-way ANOVA). (D) Hypoglycemic effect in db/db mice. db/db mice were starved for 12 h and then orally injected with vehicle (0.5% methylcellulose) or 4524-E7 (5 mg/kg). Blood glucose was monitored at different time points as indicated (n=5, *: P<0.05, two-way ANOVA). (E) Glucose tolerance test in ob/ob mice. The mice were starved for 12 hours and then orally administrated with vehicle or 4524-E7 (5 mg/kg). A bonus of glucose (2 gm/kg) was injected intraperitoneally 1 hour later. Blood glucose was then measured at 30 min intervals (n=13, *: P<0.05; **: P<0.01, two-way ANOVA).
After a 12 h fasting, C57BL/6J mice were orally administrated with 20 mg/kg of compound in 0.5% methylcellulose, and sacrificed at 3 h, 4 h and 5 h following compound administration. Fat tissues were dissected quickly and frozen on dry ice. Fat lysates were prepared and analyzed by Western blotting.

[4] = target: T2, IR (Homo sapiens, UniProt P06213); test: Cell-based ELISA of IR tyrosine phosphorylation in CHO-IR cells; set-up: expressed in transfected cells; host or cells: CHO (CHO-IR, gift from Dr. Nicholas Webster, UCSD); conditions: 5 μM, ELISA
Procedure: A cell-based screening assay was developed with Chinese hamster ovary cells stably transfected with IR (CHO-IR) by using an ELISA to determine the IR tyrosine phosphorylation. […] Other 1,4-Napthoquinones that are structurally related to 4524-E7 were evaluated.
CHO-IR cells were seeded in a 96-well plate at 15,000 cells per well in […] of 0.1% FBS medium with 0.1% FBS. […] Cells were lysed, and phosphorylated receptors were captured with pY20 immobilized on ELISA plates. Bound receptors were washed, then detected using an anti-IR beta antibody, followed by an horseradish peroxidase-conjugated secondary antibody and colorimetric detection with 3,3′,5,5′-tetramethylbenzidine.
(§3) A cell-based ELISA assay was developed with an IR stably transfected Chinese Hamster Ovary (CHO-IR) cell line. […] The cell lysates were subjected to the sandwich ELISA using immobilized anti-phosphotyrosine antibody and anti-IR antibody.

[5] = test system: C57BL/6J mice; test: Blood glucose level test in C57BL/6J mice; format: in vivo, mouse; conditions: 20 mg/kg oral, 12 h starved
Procedure: as §1, §2
After a 12 h fasting, C57B5L/6J and db/db mice were bled from the tail vein for a baseline measurement with a glucometer (Accu-Chek; Roche Diagnostics, Indianapolis, Ind.). Afterward, animals were orally administered 5 mg/kg compound in 0.5% methylcellulose through a feeding needle. Blood glucose levels were measured at hourly intervals over 5 h.

[6] = target: T2, IR; test: Immunoblotting of IR phosphorylation and downstream signaling in CHO-IR cells; format: cell-based; set-up: expressed in transfected cells; host or cells: CHO (CHO-IR, gift from Dr. Nicholas Webster, UCSD); conditions: 5 μM, 30 min
Procedure: The cell lysates were analyzed by immunoblotting with anti-phospho-IR antibodies, or immunoprecipitated by PY20 and analyzed using anti-IR and anti-IRS-1, respectively. […] The cell lysates were analyzed by immunoblotting with anti-pIGF-1R and anti-pEGFR. […]
as §3

T2 sequence (P06213 763-1382 limits assumed): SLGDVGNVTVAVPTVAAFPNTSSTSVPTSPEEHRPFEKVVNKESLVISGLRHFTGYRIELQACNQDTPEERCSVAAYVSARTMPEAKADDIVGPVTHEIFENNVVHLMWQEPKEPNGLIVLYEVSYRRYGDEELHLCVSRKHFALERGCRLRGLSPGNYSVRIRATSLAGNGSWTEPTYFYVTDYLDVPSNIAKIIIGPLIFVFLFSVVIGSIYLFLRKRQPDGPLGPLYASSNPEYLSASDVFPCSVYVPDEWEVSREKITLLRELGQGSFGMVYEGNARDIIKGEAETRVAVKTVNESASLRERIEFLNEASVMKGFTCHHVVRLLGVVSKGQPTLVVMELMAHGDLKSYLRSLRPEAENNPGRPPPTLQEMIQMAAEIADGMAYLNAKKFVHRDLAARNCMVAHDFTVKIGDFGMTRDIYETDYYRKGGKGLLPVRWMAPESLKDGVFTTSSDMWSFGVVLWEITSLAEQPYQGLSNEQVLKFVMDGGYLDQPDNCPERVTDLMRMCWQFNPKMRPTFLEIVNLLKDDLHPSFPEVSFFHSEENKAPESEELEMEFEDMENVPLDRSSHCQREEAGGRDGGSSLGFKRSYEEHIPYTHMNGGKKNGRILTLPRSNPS
T2 sequence (P06213 28-758 limits assumed): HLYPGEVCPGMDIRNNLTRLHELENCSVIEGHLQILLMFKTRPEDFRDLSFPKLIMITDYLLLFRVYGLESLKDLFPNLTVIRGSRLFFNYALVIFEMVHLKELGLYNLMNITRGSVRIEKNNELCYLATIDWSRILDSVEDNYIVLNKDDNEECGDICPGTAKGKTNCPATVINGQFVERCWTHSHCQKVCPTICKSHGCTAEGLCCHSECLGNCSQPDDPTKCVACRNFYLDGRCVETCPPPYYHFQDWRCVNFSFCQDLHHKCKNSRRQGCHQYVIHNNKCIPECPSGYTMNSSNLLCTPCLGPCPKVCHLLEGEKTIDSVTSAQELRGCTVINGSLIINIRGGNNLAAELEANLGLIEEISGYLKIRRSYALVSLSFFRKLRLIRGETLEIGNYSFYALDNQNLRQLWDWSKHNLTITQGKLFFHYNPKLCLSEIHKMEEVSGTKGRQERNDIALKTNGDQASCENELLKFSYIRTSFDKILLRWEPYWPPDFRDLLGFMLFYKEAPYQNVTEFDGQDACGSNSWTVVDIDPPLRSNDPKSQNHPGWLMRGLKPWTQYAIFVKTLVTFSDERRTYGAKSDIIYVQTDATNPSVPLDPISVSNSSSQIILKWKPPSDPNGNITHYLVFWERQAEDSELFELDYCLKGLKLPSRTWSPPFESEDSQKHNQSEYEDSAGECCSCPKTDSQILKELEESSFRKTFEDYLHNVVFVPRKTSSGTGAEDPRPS
T1 sequence (P06213 1011-1382): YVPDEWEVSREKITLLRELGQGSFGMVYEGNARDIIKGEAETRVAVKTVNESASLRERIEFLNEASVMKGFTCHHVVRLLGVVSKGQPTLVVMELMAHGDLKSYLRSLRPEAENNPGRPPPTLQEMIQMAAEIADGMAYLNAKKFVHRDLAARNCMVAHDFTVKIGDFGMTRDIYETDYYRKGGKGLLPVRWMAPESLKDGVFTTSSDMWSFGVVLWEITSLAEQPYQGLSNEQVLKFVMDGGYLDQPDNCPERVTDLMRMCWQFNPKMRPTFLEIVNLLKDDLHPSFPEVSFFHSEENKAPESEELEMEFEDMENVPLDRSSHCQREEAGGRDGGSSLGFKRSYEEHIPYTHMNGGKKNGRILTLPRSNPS
IR (Mus musculus, UniProt P15208), sequence (P15208 28-1372): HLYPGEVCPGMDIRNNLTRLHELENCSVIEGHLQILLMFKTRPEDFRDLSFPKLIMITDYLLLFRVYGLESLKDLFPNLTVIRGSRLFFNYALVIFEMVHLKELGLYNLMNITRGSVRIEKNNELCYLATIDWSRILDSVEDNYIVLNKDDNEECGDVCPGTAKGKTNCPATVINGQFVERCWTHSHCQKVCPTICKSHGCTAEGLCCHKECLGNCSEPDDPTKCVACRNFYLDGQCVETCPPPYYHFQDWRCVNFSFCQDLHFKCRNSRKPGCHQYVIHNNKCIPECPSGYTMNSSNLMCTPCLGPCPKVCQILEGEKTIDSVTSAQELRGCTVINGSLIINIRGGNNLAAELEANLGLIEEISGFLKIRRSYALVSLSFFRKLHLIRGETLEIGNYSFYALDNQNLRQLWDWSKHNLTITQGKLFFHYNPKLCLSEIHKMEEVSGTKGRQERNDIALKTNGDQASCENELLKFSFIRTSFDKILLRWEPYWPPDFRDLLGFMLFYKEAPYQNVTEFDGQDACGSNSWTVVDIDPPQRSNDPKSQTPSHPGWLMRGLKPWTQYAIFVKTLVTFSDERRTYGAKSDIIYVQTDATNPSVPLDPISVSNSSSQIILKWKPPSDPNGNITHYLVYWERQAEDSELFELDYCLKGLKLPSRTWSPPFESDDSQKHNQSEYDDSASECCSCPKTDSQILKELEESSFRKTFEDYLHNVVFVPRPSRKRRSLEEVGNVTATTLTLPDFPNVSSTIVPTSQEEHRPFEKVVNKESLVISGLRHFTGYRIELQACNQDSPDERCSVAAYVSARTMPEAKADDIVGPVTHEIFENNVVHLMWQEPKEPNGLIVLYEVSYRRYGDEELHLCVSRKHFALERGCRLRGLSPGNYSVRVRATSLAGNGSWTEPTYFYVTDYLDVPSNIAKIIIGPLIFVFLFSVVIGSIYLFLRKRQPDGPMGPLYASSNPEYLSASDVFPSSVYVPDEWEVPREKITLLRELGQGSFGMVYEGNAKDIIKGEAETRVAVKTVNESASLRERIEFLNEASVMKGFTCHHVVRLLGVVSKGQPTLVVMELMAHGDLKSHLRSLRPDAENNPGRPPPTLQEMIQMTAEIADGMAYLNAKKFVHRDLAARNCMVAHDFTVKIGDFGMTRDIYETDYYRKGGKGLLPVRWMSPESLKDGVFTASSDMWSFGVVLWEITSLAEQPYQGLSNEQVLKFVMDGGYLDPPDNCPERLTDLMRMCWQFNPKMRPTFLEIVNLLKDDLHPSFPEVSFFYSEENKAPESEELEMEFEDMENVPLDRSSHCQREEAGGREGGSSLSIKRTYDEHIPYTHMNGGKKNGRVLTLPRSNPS

SMILES: Nc1ncnc2c1ncn2[C@@H]1O[C@H](COP(=O)(O)OP(=O)(O)OP(O)(O)=S)[C@@H](O)[C@H]1O [ATP-γ-S, reference compound]
- protection of IRTK from proteolysis [1]: altered the proteolysis pattern; also recorded: digestion pattern was altered

SMILES: NC1=CC(=O)c2ccccc2C1=O [2NH2-NQ, 2-amino-1,4-naphthoquinone, reference compound]
- IRTK kinase activity (histone H2B phosphorylation) [2]: inactive analogue
- IR and IRS-1 tyrosine phosphorylation in liver and muscle [3]: Neither IR nor IRS phosphorylations were increased
- IR phosphorylation ([4]; 15 min, CHO-IR cells): not active
- blood glucose as compared to vehicle control [5]: had no effect

SMILES: O=C1c2ccccc2C(=O)c2sc(Nc3ccc(Cl)cc3Cl)nc21 [compound 7, 2-((2,4-dichlorophenyl)amino)naphtho[2,3-d]thiazole-4,9-dione]
- IR tyrosine phosphorylation [6]: triggered IR tyrosine phosphorylation
- IR phosphorylation, 4524-E7 derivatives ([4]; 30 min, compared to the parental compound): improved activity
